We go through 25 molecules from patent publication US12173020B2, “New-type oxazolidinone compounds and preparation method therefor” (priority 2019, dated 2024).

Assay [1] concerns vancomycin-resistant Enterococcus (VRE). As to the kind of experiment: agar dilution method, inhibitory effect on VRE. As to conditions: for MIC50: Enterococcus, read-out: Minimum inhibitory concentration (MIC50, μg/ml) VRE. Type of assay: cell-based. An excerpt: (§1) In order to determine the antibacterial activity of these new oxazolidinone-based compounds, an agar dilution method was used to test the inhibitory effect on methicillin-resistant Staphylococcus aureus (MRSA) and vancomycin-resistant Enterococcus (VRE). The bacteria inhibition effect was expressed as minimum inhibitory concentration (MIC50, μg/ml) The test results are shown in the following table.
(In general: Agar dilution tests growth on a series of plates holding different concentrations.)

Assay [2] deals with methicillin-resistant Staphylococcus aureus (MRSA). As to the kind of experiment: agar dilution method, inhibitory effect on MRSA. Format: cell-based. As to conditions: for MIC50: Staphylococcus aureus, read-out: Minimum inhibitory concentration (MIC50, μg/ml) MRSA.
Source text: as §1

Molecules are shown by their SMILES.

Regarding `Cn1nnc(-c2ccc(-c3ccc(N4C[C@H](COP(=O)(O)O)OC4=O)cc3F)cn2)n1` [Tedizolid phosphate, reference compound], the MIC50 in assay [1] and in assay [2] was 2 µg/mL in each case.

Take `CCn1nnc(-c2ccc(-c3ccc(N4C[C@H](CO)OC4=O)cc3F)cn2)n1.O=P(O)(O)O` [compound 79, (R)-3-(3-fluoro-4-(6-(2-ethyl-2H-tetrazol-5-yl)pyridin-3-yl)phenyl)-5-(hydroxymethyl) oxazolidin-2-one phosphate]: the MIC50 in assay [1] was determined as 1.5 µg/mL; in assay [2], 1.8 µg/mL.

Consider `CCn1nnc(-c2ccc(-c3ccc(N4C[C@@H](CO)OC4=O)cc3F)cn2)n1.O=P(O)(O)O` [compound 80, (S)-3-(3-fluoro-4-(6-(2-ethyl-2H-tetrazol-5-yl)pyridin-3-yl)phenyl)-5-(hydroxymethyl) oxazolidin-2-one phosphate], for which the MIC50 in assay [1] and in assay [2] was 1.9 µg/mL throughout.

Take `CCCn1nnc(-c2ccc(-c3ccc(N4C[C@H](CO)OC4=O)cc3F)cn2)n1.O=P(O)(O)O` [compound 81, (R)-3-(3-fluoro-4-(6-(2-propyl-2H-tetrazol-5-yl)pyridin-3-yl)phenyl)-5-(hydroxymethyl) oxazolidin-2-one phosphate]: the MIC50 in assay [1] and in assay [2] was 1.2 µg/mL in each case.

For `CCCn1nnc(-c2ccc(-c3ccc(N4C[C@@H](CO)OC4=O)cc3F)cn2)n1.O=P(O)(O)O` [compound 82, (S)-3-(3-fluoro-4-(6-(2-propyl-2H-tetrazol-5-yl)pyridin-3-yl)phenyl)-5-(hydroxymethyl) oxazolidin-2-one phosphate], the MIC50 in assay [1] and in assay [2] was 1.2 µg/mL each time.

In the case of `O=C1O[C@@H](CO)CN1c1ccc(-c2ccc(-c3nnn(C4CC4)n3)nc2)c(F)c1.O=P(O)(O)O` [compound 83, (R)-3-(3-fluoro-4-(6-(2-cyclopropyl-2H-tetrazol-5-yl)pyridin-3-yl)phenyl)-5-(hydroxymethyl) oxazolidin-2-one phosphate], the MIC50 turned out to be 0.7 µg/mL in assay [1] and 0.8 µg/mL in assay [2].

On to `O=C1O[C@H](CO)CN1c1ccc(-c2ccc(-c3nnn(C4CC4)n3)nc2)c(F)c1.O=P(O)(O)O` [compound 84, (S)-3-(3-fluoro-4-(6-(2-cyclopropyl-2H-tetrazol-5-yl)pyridin-3-yl)phenyl)-5-(hydroxymethyl) oxazolidin-2-one phosphate], for which the MIC50 in assay [1] and in assay [2] was 0.4 µg/mL in each case.

On to `C=Cn1nnc(-c2ccc(-c3ccc(N4C[C@H](CO)OC4=O)cc3F)cn2)n1.O=P(O)(O)O` [compound 85, (R)-3-(3-fluoro-4-(6-(2-vinyl-2H-tetrazol-5-yl)pyridin-3-yl)phenyl)-5-(hydroxymethyl) oxazolidin-2-one phosphate], for which the MIC50 in assay [1] and in assay [2] was 0.2 µg/mL throughout.

Turning to `C=Cn1nnc(-c2ccc(-c3ccc(N4C[C@@H](CO)OC4=O)cc3F)cn2)n1.O=P(O)(O)O` [compound 86, (S)-3-(3-fluoro-4-(6-(2-vinyl-2H-tetrazol-5-yl)pyridin-3-yl)phenyl)-5-(hydroxymethyl) oxazolidin-2-one phosphate], the MIC50 in assay [1] and in assay [2] was 0.3 µg/mL throughout.

Take `CC(O)[C@H]1CN(c2ccc(-c3ccc(-c4nnn(C)n4)nc3)c(F)c2)C(=O)O1.O=P(O)(O)O` (stereo partly drawn) [compound 87, (R)-3-(3-fluoro-4-(6-(2-methyl-2H-tetrazol-5-yl)pyridin-3-yl)phenyl)-5-(1-hydroxyethyl) oxazolidin-2-one phosphate]: the MIC50 in assay [1] and in assay [2] was 0.3 µg/mL throughout.

With `CC(O)[C@@H]1CN(c2ccc(-c3ccc(-c4nnn(C)n4)nc3)c(F)c2)C(=O)O1.O=P(O)(O)O` (stereo partly drawn) [compound 88, (S)-3-(3-fluoro-4-(6-(2-methyl-2H-tetrazol-5-yl)pyridin-3-yl)phenyl)-5-(1-hydroxyethyl) oxazolidin-2-one phosphate], the MIC50 in assay [1] and in assay [2] was 0.5 µg/mL throughout.

Turning to `CCC(O)[C@H]1CN(c2ccc(-c3ccc(-c4nnn(C)n4)nc3)c(F)c2)C(=O)O1.O=P(O)(O)O` (stereo partly drawn) [compound 89, (R)-3-(3-fluoro-4-(6-(2-methyl-2H-tetrazol-5-yl)pyridin-3-yl)phenyl)-5-(1-hydroxypropyl) oxazolidin-2-one phosphate], the MIC50 in assay [1] and in assay [2] was 0.4 µg/mL each time.

Consider `CCC(O)[C@@H]1CN(c2ccc(-c3ccc(-c4nnn(C)n4)nc3)c(F)c2)C(=O)O1.O=P(O)(O)O` (stereo partly drawn) [compound 90, (S)-3-(3-fluoro-4-(6-(2-methyl-2H-tetrazol-5-yl)pyridin-3-yl)phenyl)-5-(1-hydroxypropyl) oxazolidin-2-one phosphate], for which the MIC50 in assay [1] and in assay [2] was 2 µg/mL each time.

Turning to `Cn1nnc(-c2ccc(-c3ccc(N4C[C@H](C(O)F)OC4=O)cc3F)cn2)n1.O=P(O)(O)O` (stereo partly drawn) [compound 91, (R)-3-(3-fluoro-4-(6-(2-methyl-2H-tetrazol-5-yl)pyridin-3-yl)phenyl)-5-(hydroxyfluoromethyl) oxazolidin-2-one phosphate], the MIC50 in assay [1] and in assay [2] was 1.3 µg/mL throughout.

As for `Cn1nnc(-c2ccc(-c3ccc(N4C[C@@H](C(O)F)OC4=O)cc3F)cn2)n1.O=P(O)(O)O` (stereo partly drawn) [compound 92, (S)-3-(3-fluoro-4-(6-(2-methyl-2H-tetrazol-5-yl)pyridin-3-yl)phenyl)-5-(hydroxyfluoromethyl) oxazolidin-2-one phosphate], the MIC50 in assay [1] and in assay [2] was 0.9 µg/mL each time.

For `Cn1nnc(-c2ccc(-c3ccc(N4C[C@H](C(O)C(F)(F)F)OC4=O)cc3F)cn2)n1.O=P(O)(O)O` (stereo partly drawn) [compound 93, (R)-3-(3-fluoro-4-(6-(2-methyl-2H-tetrazol-5-yl)pyridin-3-yl)phenyl)-5-(1-hydroxy-2-trifluoroethyl) oxazolidin-2-one phosphate], in assay [1], the “Minimum inhibitory concentration (MIC50, μg/ml) VRE” value came out at 0.7 µg/mL. Also, the “Minimum inhibitory concentration (MIC50, μg/ml) MRSA” value in assay [2] was found to be 0.7 µg/mL.

In the case of `Cn1nnc(-c2ccc(-c3ccc(N4C[C@@H](C(O)C(F)(F)F)OC4=O)cc3F)cn2)n1.O=P(O)(O)O` (stereo partly drawn) [compound 94, (S)-3-(3-fluoro-4-(6-(2-methyl-2H-tetrazol-5-yl)pyridin-3-yl)phenyl)-5-(1-hydroxy-2-trifluoroethyl) oxazolidin-2-one phosphate], the “Minimum inhibitory concentration (MIC50, μg/ml) VRE” value in assay [1] is 1.5 µg/mL. The “Minimum inhibitory concentration (MIC50, μg/ml) MRSA” value in assay [2] came to 1.5 µg/mL.

With `CCn1nnc(-c2ccc(-c3ccc(N4C[C@H](C(O)C(F)(F)F)OC4=O)cc3F)cn2)n1.O=P(O)(O)O` (stereo partly drawn) [compound 95, (R)-3-(3-fluoro-4-(6-(2-ethyl-2H-tetrazol-5-yl)pyridin-3-yl)phenyl)-5-(1-hydroxy-2-trifluoroethyl) oxazolidin-2-one phosphate], the “Minimum inhibitory concentration (MIC50, μg/ml) VRE” value in assay [1] worked out at 0.3 µg/mL. For the same molecule, the “Minimum inhibitory concentration (MIC50, μg/ml) MRSA” value in assay [2] came out at 0.3 µg/mL.

As for `CCn1nnc(-c2ccc(-c3ccc(N4C[C@@H](C(OP(=O)(O)O)C(F)(F)F)OC4=O)cc3F)cn2)n1` (stereo partly drawn) [compound 96, (S)-3-(3-fluoro-4-(6-(2-ethyl-2H-tetrazol-5-yl)pyridin-3-yl)phenyl)-5-(1-hydroxy-2-trifluoroethyl) oxazolidin-2-one phosphate], in assay [1], the “Minimum inhibitory concentration (MIC50, μg/ml) VRE” value turned out to be 0.8 µg/mL. In assay [2], the “Minimum inhibitory concentration (MIC50, μg/ml) MRSA” value was found to be 0.8 µg/mL.

As for `CCn1nnc(-c2ccc(-c3ccc(N4C[C@H](C(C)O)OC4=O)cc3F)cn2)n1.O=P(O)(O)O` (stereo partly drawn) [compound 97, (R)-3-(3-fluoro-4-(6-(2-ethyl-2H-tetrazol-5-yl)pyridin-3-yl)phenyl)-5-(1-hydroxyethyl) oxazolidin-2-one phosphate], the MIC50 in assay [1] and in assay [2] was 1.1 µg/mL throughout.

As to `CCn1nnc(-c2ccc(-c3ccc(N4C[C@@H](C(C)O)OC4=O)cc3F)cn2)n1.O=P(O)(O)O` (stereo partly drawn) [compound 98, (S)-3-(3-fluoro-4-(6-(2-ethyl-2H-tetrazol-5-yl)pyridin-3-yl)phenyl)-5-(1-hydroxyethyl) oxazolidin-2-one phosphate], the MIC50 in assay [1] came out at 1.5 µg/mL; in assay [2] it was 1.6 µg/mL.

With `CCC(O)[C@H]1CN(c2ccc(-c3ccc(-c4nnn(CC)n4)nc3)c(F)c2)C(=O)O1.O=P(O)(O)O` (stereo partly drawn) [compound 99, (R)-3-(3-fluoro-4-(6-(2-ethyl-2H-tetrazol-5-yl)pyridin-3-yl)phenyl)-5-(1-hydroxypropyl) oxazolidin-2-one phosphate], the MIC50 in assay [1] and in assay [2] was 0.2 µg/mL each time.

`CCC(O)[C@@H]1CN(c2ccc(-c3ccc(-c4nnn(CC)n4)nc3)c(F)c2)C(=O)O1.O=P(O)(O)O` (stereo partly drawn) [compound 100, (S)-3-(3-fluoro-4-(6-(2-ethyl-2H-tetrazol-5-yl)pyridin-3-yl)phenyl)-5-(1-hydroxypropyl) oxazolidin-2-one phosphate]: the MIC50 was 0.3 µg/mL in assay [1] and 0.2 µg/mL in assay [2].

Take `CCn1nnc(-c2ccc(-c3ccc(N4C[C@H](C(O)F)OC4=O)cc3F)cn2)n1.O=P(O)(O)O` (stereo partly drawn) [compound 101, (R)-3-(3-fluoro-4-(6-(2-ethyl-2H-tetrazol-5-yl)pyridin-3-yl)phenyl)-5-(hydroxyfluoromethyl) oxazolidin-2-one phosphate]: the MIC50 in assay [1] and in assay [2] was 0.4 µg/mL in each case.

`CCn1nnc(-c2ccc(-c3ccc(N4C[C@@H](C(O)F)OC4=O)cc3F)cn2)n1.O=P(O)(O)O` (stereo partly drawn) [compound 102, (S)-3-(3-fluoro-4-(6-(2-ethyl-2H-tetrazol-5-yl)pyridin-3-yl)phenyl)-5-(hydroxyfluoromethyl) oxazolidin-2-one phosphate]: the MIC50 in assay [1] and in assay [2] was 0.2 µg/mL in each case.
